The text below walks through data of ChEMBL document CHEMBL6074683, “Design, synthesis and investigation of biological activity and mechanism of fluoroaryl-substituted derivatives at the FL118 position 7” (Eur J Med Chem, 2025).

As usually defined, the IC50 is the midpoint of a concentration-inhibition curve. Usually Papp A→B stands for how fast a substance crosses the layer from the apical side. In general, efflux ratio refers to a quotient of directional permeabilities that is used to spot active efflux.

The subject of one series is HepG2. Kind of series: Cytotoxicity against human HepG2 cells incubated for 72 hrs by MTT assay. In kind it is functional, cell-based. The following applies: HepG2, 72 h.
For a further series, the system named is A549. The series can be described thus: Cytotoxicity against human A549 cells incubated for 72 hrs by MTT assay. In kind it is functional, cell-based. The following applies: A549, 72 h.
For the next series, the system named is HeLa. The series can be described thus: Cytotoxicity against human HeLa cells incubated for 72 hrs by MTT assay. It counts as functional, cell-based. (In general: Formazan colour is commonly taken as a measure of viable cells.)
Series [1] deals with HCT-116. The series can be described thus: Cytotoxicity against human HCT-116 cells incubated for 72 hrs by MTT assay. The following applies: HCT-116, 72 h. In kind it is functional, cell-based.
Series [2] is described as follows: Apparent permeability across apical to basolateral side in human Caco-2 cells measured upto 120 mins by LC-MS/MS method. It counts as ADME, cell-based. A general note: Passage across Caco-2 layers is used to estimate intestinal permeability.
A short description of series [3]: Efflux ratio of apparent permeability across basolateral to apical over apical to basolateral side in human Caco-2 cells. It counts as ADME, cell-based.
The test system of series [4] is HCT-116. The series can be described thus: Downregulation of DDX5 protein expression in human HCT-116 cells at 100 nM incubated upto 72 hrs by Western blotting assay. It counts as functional, cell-based. On the technique in general: A western blot detects proteins with antibodies after separation by electrophoresis.

Active and inactive are the calls of the source. No cut-off for these calls is given here.

In the case of `CC[C@@]1(O)C(=O)OCc2c1cc1n(c2=O)Cc2c-1nc1cc3c(cc1c2-c1ccc(F)cc1)OCO3`, the IC50 with HepG2 turned out to be 46.3 nM; in the series with A549 it was 19.8 nM; in the series on HeLa, 11.1 nM; in the series on HCT-116 [1], 32.7 nM.

Consider `CC[C@@]1(O)C(=O)OCc2c1cc1n(c2=O)Cc2c-1nc1cc3c(cc1c2-c1cccc(C(F)(F)F)c1)OCO3`, for which the 50% inhibitory concentration (IC50) in the series with HepG2 came to 35 nM; in the series on A549 it was 82.9 nM; with HeLa, 20.2 nM; in the series with HCT-116 [1] it was 73.6 nM.

In the case of `CC[C@@]1(O)C(=O)OCc2c1cc1n(c2=O)Cc2cc3cc4c(cc3nc2-1)OCO4`, the IC50 turned out to be 68.5 nM in the series on HepG2, 81.8 nM with A549, 34.7 nM in the series with HeLa and 66.5 nM with HCT-116 [1]. In addition, the Papp A→B at 2 h in series [2] was 6.97 ×10⁻⁶ cm/s. In addition, in series [3], the efflux ratio was 1.2.

`CCc1c2c(nc3ccc(O)cc13)-c1cc3c(c(=O)n1C2)COC(=O)[C@]3(O)CC` [7-ETHYL-10-HYDROXYCAMPTOTHECIN]: the IC50 in the series on HepG2 came to 268 nM; in the series with A549 it was 475 nM; in the series on HeLa, 234 nM; with HCT-116 [1] it was 367 nM. Moreover, in the series on HCT-116 [4], the outcome was inactive.

Turning to `CC[C@@]1(O)C(=O)OCc2c1cc1n(c2=O)Cc2c-1nc1cc3c(cc1c2-c1ccc(C)c(F)c1)OCO3`, the half-maximal inhibitory concentration (IC50) amounted to 36.9 nM in the series on HepG2, 48.2 nM in the series with A549, 22.1 nM with HeLa and 50.3 nM in the series with HCT-116 [1].

In the case of `CC[C@@]1(O)C(=O)OCc2c1cc1n(c2=O)Cc2c-1nc1cc3c(cc1c2-c1ccc(OC)c(F)c1)OCO3`, the IC50 is 172 nM in the series on HepG2, 70.2 nM with A549, 24.3 nM in the series on HeLa and 43.2 nM with HCT-116 [1].

As to `CC[C@@]1(O)C(=O)OCc2c1cc1n(c2=O)Cc2c-1nc1cc3c(cc1c2-c1ccc(F)c(C)c1)OCO3`, the IC50 with HepG2 amounted to 36.7 nM; with A549 it was 29.4 nM; in the series on HeLa, 36.6 nM; with HCT-116 [1] it was 25.5 nM.

Regarding `CCOc1ccc(-c2c3c(nc4cc5c(cc24)OCO5)-c2cc4c(c(=O)n2C3)COC(=O)[C@]4(O)CC)cc1F`, the IC50 was 206 nM in the series on HepG2, 352 nM with A549, 42.2 nM in the series with HeLa and 399 nM in the series on HCT-116 [1].
